Earlier results as cited in patent US20230364199A1, “IMPROVEMENT OF PHYSICAL AND MENTAL WELL-BEING OF PATIENTS WITH HYPOPARATHYROIDISM” (ASCENDIS PHARMA BONE DISEASES A/S, priority 2020, published 2023).

Key:
[1] = tested on: patients with hypoparathyroidism
[2] = tested on: adults with chronic hypoparathyroidism; details: supplements adjusted to target serum calcium
[3] = tested on: patients with hypoparathyroidism; details: 54 patients, after 1 year of treatment, every other day

| Molecule | 9-min walk-run test ([1]; seven patients, before and after 3 years of treatment, twice a day) | fatigue and physical endurance described by patients ([1]; several patients, during PTH treatment) | QoL (SF-36), between-group differences versus placebo [2] | QoL, mental component score and physical component score (RAND 36-Item Health Survey) [3] |
| --- | --- | --- | --- | --- |
| PTH 1-34: PTH polypeptide of SEQ ID NO: 51 (PTH 1-34) (SVSEIQLMHNLGKHLNSMERVEWLRKKLQDVHNF; human PTH 1-34) | no significant changes | less fatigue and greater physical endurance |  |  |
| PTH 1-84: PTH polypeptide of SEQ ID NO: 1 (PTH 1-84) (protein, listed as Homo sapiens) SVSEIQLMHNLGKHLNSMERVEWLRKKLQDVHNFVALGAPLAPRDAGSQRPRKKEDNVLVESHEKSLGEADKADVNVLTKAKSQ |  |  | not statistically significant | improvement in QoL |
